Results as given in patent US8785655B2, “Ionic liquid solvents” (Dublin City University, priority 2009, dated 2014).

What was measured:
[1] = test system: Staphylococcus aureus CCM 4516/08; assay: Screen against bacteria, MIC/IC80; type: cell-based; settings: SA
[2] = test system: Staphylococcus aureus H 5996/08 Methiciline-resistant; assay: Screen against bacteria, MIC/IC80; type: cell-based; settings: MRSA
[3] = test system: Staphylococcus epidermidis H 6966/08; assay: Screen against bacteria, MIC/IC80; type: cell-based; settings: SE
[4] = test system: Enterococcus sp. J 14365/08; assay: Screen against bacteria, MIC/IC80; type: cell-based; settings: EF
Escherichia coli CCM4517 = assay: Screen against bacteria, MIC/IC80; type: cell-based; settings: EC
[5] = test system: Klebsiella pneumoniae D 11750/08; assay: Screen against bacteria, MIC/IC80; type: cell-based; settings: KP
[6] = test system: Klebsiella pneumoniae J 14368/08 ESBL-positive; assay: Screen against bacteria, MIC/IC80; type: cell-based; settings: KP-E
[7] = test system: Pseudomonas aeruginosa CCM 1961; assay: Screen against bacteria, MIC/IC80; type: cell-based; settings: PA
[8] = test system: Candida albicans ATCC 44859; assay: In vitro antifungal activity, MIC by microdilution (NCCLS M27-A)
[9] = test system: Candida albicans ATCC 90028; assay: as above
[10] = test system: Candida parapsilosis ATCC 22019; assay: as above; settings: CP
Candida krusei ATCC 6258 = assay: as above
Procedure: (§1) In vitro antifungal activities of the compounds were evaluated on the collection of fungal strains deposited at the Department of Biological and Medical Sciences, Faculty of Pharmacy, Charles University, Czech Republic. All the isolates were maintained on Sabouraud dextrose agar prior to being tested.
(§2) Minimum inhibitory concentrations (MICs) were determined by the microdilution format of the NCCLS M27-A guidelines. […] RPMI 1640 (Sevapharma, Prague) medium supplemented with L-glutamine and buffered with 0.165 M morpholinepropanesulfonic acid to pH 7.0 was used as the test medium. The wells of the microdilution tray contained 100 μl of the RPMI 1640 medium with 2-fold serial dilutions of the compounds (1000 to 0.24 μmol/l for the new compounds) and 100 μl of inoculum suspension. Fungal inoculum in RPMI 1640 was prepared to give a final concentration of 5×103±0.2 cfu·ml-1. The trays were incubated at 35° C. and MICs were read visually for filamentous fungi and photometrically for yeasts as an optical density (OD) at 540 nm after 24 h and 48 h. The MICs were defined as 80% inhibition of the growth of control. MICs were determined twice and in duplicate. The deviations from the usually obtained were no higher than the nearest concentration value up and down the dilution scale.

Candida krusei E28 = assay: as above
Procedure: All the isolates were maintained on Sabouraud dextrose agar prior to being tested.
as §2

Candida tropicalis 156 = assay: as above; settings: CT
Candida glabrata 20/l = assay: as above; settings: CG
Procedure: as §1, §2

[11] = test system: Candida lusitaniae 2446/l; assay: as above; settings: CL
Procedure: as §1, §2

[12] = test system: Aspergillus fumigatus 231; assay: as above; settings: AF
Absidia corymbifera 272 = assay: as above; settings: AC
Procedure: as §1, §2

[13] = test system: Trichophyton mentagrophytes 445; assay: as above; settings: TM

| SMILES | MIC/IC80 ([1]; 24 h) | MIC/IC80 ([1]; 48 h) | MIC/IC80 ([2]; 24 h) | MIC/IC80 ([2]; 48 h) | MIC/IC80 ([3]; 24 h) | MIC/IC80 ([3]; 48 h) | MIC/IC80 ([4]; 24 h) | MIC/IC80 ([4]; 48 h) | MIC/IC80 (Escherichia coli CCM4517; 24 h) | MIC/IC80 (Escherichia coli CCM4517; 48 h) | MIC/IC80 ([5]; 24 h) | MIC/IC80 ([5]; 48 h) | MIC/IC80 ([6]; 24 h) | MIC/IC80 ([6]; 48 h) | MIC/IC80 ([7]; 24 h) | MIC/IC80 ([7]; 48 h) | MIC/IC80 ([8]; CA1, 24 h) | MIC/IC80 ([8]; CA1, 48 h) | MIC/IC80 ([9]; CA2, 24 h) | MIC/IC80 ([9]; CA2, 48 h) | also measured |
| --- | --- | --- | --- | --- | --- | --- | --- | --- | --- | --- | --- | --- | --- | --- | --- | --- | --- | --- | --- | --- | --- |
| CCCCCOC(=O)[C@@H](C)OC(=O)C[n+]1ccn(C)c1 [KG159, R-3-methyl-1-[1-(pentoxycarbonyl)-1-methylmethoxycarbonylmethyl]imidazolium bromide] | >1000 µM | >1000 µM | >1000 µM | >1000 µM | >1000 µM | >1000 µM | >1000 µM | >1000 µM | >1000 µM | >1000 µM | >1000 µM | >1000 µM | >1000 µM | >1000 µM | >1000 µM | >1000 µM | >1000 µM | >1000 µM | >1000 µM | >1000 µM | MIC/IC80 ([10]; 24 h): >1000 µM; MIC/IC80 ([10]; 48 h): >1000 µM; MIC/IC80 (Candida krusei ATCC 6258; CK1, 24 h): >1000 µM; MIC/IC80 (Candida krusei ATCC 6258; CK1, 48 h): >1000 µM; MIC/IC80 (Candida krusei E28; CK2, 24 h): >1000 µM; MIC/IC80 (Candida krusei E28; CK2, 48 h): >1000 µM; MIC/IC80 (Candida tropicalis 156; 24 h): >1000 µM; MIC/IC80 (Candida tropicalis 156; 48 h): >1000 µM; MIC/IC80 (Candida glabrata 20/l; 24 h): >1000 µM; MIC/IC80 (Candida glabrata 20/l; 48 h): >1000 µM; MIC/IC80 ([11]; 24 h): >1000 µM; MIC/IC80 ([11]; 48 h): >1000 µM; MIC/IC80 ([12]; 24 h): >1000 µM; MIC/IC80 ([12]; 48 h): >1000 µM; MIC/IC80 (Absidia corymbifera 272; 24 h): >1000 µM; MIC/IC80 (Absidia corymbifera 272; 48 h): >1000 µM; MIC/IC80 ([13]; 72 h): >1000 µM; MIC/IC80 ([13]; 120 h): >1000 µM |
| CCOCCOC(=O)C(C)OC(=O)Cn1cc[n+](C)c1.[Br-] (centres unmarked) [KG160, RS-3-methyl-1-[1-(ethoxyethoxycarbonyl)-1-methylmethoxycarbonylmethyl]imidazolium bromide] | >1000 µM | >1000 µM | >1000 µM | >1000 µM | >1000 µM | >1000 µM | >1000 µM | >1000 µM | >1000 µM | >1000 µM | >1000 µM | >1000 µM | >1000 µM | >1000 µM | >1000 µM | >1000 µM | >1000 µM | >1000 µM | >1000 µM | >1000 µM | MIC/IC80 ([10]; 24 h): >1000 µM; MIC/IC80 ([10]; 48 h): >1000 µM; MIC/IC80 (Candida krusei ATCC 6258; CK1, 24 h): >1000 µM; MIC/IC80 (Candida krusei ATCC 6258; CK1, 48 h): >1000 µM; MIC/IC80 (Candida krusei E28; CK2, 24 h): >1000 µM; MIC/IC80 (Candida krusei E28; CK2, 48 h): >1000 µM; MIC/IC80 (Candida tropicalis 156; 24 h): >1000 µM; MIC/IC80 (Candida tropicalis 156; 48 h): >1000 µM; MIC/IC80 (Candida glabrata 20/l; 24 h): >1000 µM; MIC/IC80 (Candida glabrata 20/l; 48 h): >1000 µM; MIC/IC80 ([11]; 24 h): >1000 µM; MIC/IC80 ([11]; 48 h): >1000 µM; MIC/IC80 ([12]; 24 h): >1000 µM; MIC/IC80 ([12]; 48 h): >1000 µM; MIC/IC80 (Absidia corymbifera 272; 24 h): >1000 µM; MIC/IC80 (Absidia corymbifera 272; 48 h): >1000 µM; MIC/IC80 ([13]; 72 h): >1000 µM; MIC/IC80 ([13]; 120 h): >1000 µM |
| CCOCCOC(=O)[C@@H](C)OC(=O)C[n+]1ccn(C)c1 [KG161, R-3-methyl-1-[1-(ethoxyethoxycarbonyl)-1-methylmethoxycarbonylmethyl]imidazolium bromide] | >1000 µM | >1000 µM | >1000 µM | >1000 µM | >1000 µM | >1000 µM | >1000 µM | >1000 µM | >1000 µM | >1000 µM | >1000 µM | >1000 µM | >1000 µM | >1000 µM | >1000 µM | >1000 µM | >1000 µM | >1000 µM | >1000 µM | >1000 µM | MIC/IC80 ([10]; 24 h): >1000 µM; MIC/IC80 ([10]; 48 h): >1000 µM; MIC/IC80 (Candida krusei ATCC 6258; CK1, 24 h): >1000 µM; MIC/IC80 (Candida krusei ATCC 6258; CK1, 48 h): >1000 µM; MIC/IC80 (Candida krusei E28; CK2, 24 h): >1000 µM; MIC/IC80 (Candida krusei E28; CK2, 48 h): >1000 µM; MIC/IC80 (Candida tropicalis 156; 24 h): >1000 µM; MIC/IC80 (Candida tropicalis 156; 48 h): >1000 µM; MIC/IC80 (Candida glabrata 20/l; 24 h): >1000 µM; MIC/IC80 (Candida glabrata 20/l; 48 h): >1000 µM; MIC/IC80 ([11]; 24 h): >1000 µM; MIC/IC80 ([11]; 48 h): >1000 µM; MIC/IC80 ([12]; 24 h): >1000 µM; MIC/IC80 ([12]; 48 h): >1000 µM; MIC/IC80 (Absidia corymbifera 272; 24 h): >1000 µM; MIC/IC80 (Absidia corymbifera 272; 48 h): >1000 µM; MIC/IC80 ([13]; 72 h): >1000 µM; MIC/IC80 ([13]; 120 h): >1000 µM |
| CCCCCCCCOS(=O)(=O)[O-].CCOCCOC(=O)C(C)OC(=O)Cn1cc[n+](C)c1 (centres unmarked) [KG172, RS-3-methyl-1-[1-(ethoxyethoxycarbonyl)-1-methylmethoxycarbonylmethyl]imidazolium octyl sulphate] | >1000 µM | >1000 µM | >1000 µM | >1000 µM | >1000 µM | >1000 µM | >1000 µM | >1000 µM | >1000 µM | >1000 µM | >1000 µM | >1000 µM | >1000 µM | >1000 µM | >1000 µM | >1000 µM | >1000 µM | >1000 µM | >1000 µM | >1000 µM | MIC/IC80 ([10]; 24 h): >1000 µM; MIC/IC80 ([10]; 48 h): >1000 µM; MIC/IC80 (Candida krusei ATCC 6258; CK1, 24 h): >1000 µM; MIC/IC80 (Candida krusei ATCC 6258; CK1, 48 h): >1000 µM; MIC/IC80 (Candida krusei E28; CK2, 24 h): >1000 µM; MIC/IC80 (Candida krusei E28; CK2, 48 h): >1000 µM; MIC/IC80 (Candida tropicalis 156; 24 h): >1000 µM; MIC/IC80 (Candida tropicalis 156; 48 h): >1000 µM; MIC/IC80 (Candida glabrata 20/l; 24 h): >1000 µM; MIC/IC80 (Candida glabrata 20/l; 48 h): >1000 µM; MIC/IC80 ([11]; 24 h): >1000 µM; MIC/IC80 ([11]; 48 h): >1000 µM; MIC/IC80 ([12]; 24 h): >1000 µM; MIC/IC80 ([12]; 48 h): >1000 µM; MIC/IC80 (Absidia corymbifera 272; 24 h): >1000 µM; MIC/IC80 (Absidia corymbifera 272; 48 h): >1000 µM; MIC/IC80 ([13]; 72 h): >1000 µM; MIC/IC80 ([13]; 120 h): >1000 µM |
